Measured values reported in US12292445B2, “Methods of selecting subjects for treatment with metabolomic modulators” (priority 2018, dated 2025).

Columns and labels:
[1] = test system: Kcnal−/− mice; test: Kcnal seizure recordings (EEG); format: in vivo, mouse; details: CD-fed SPF Kcnal−/− mice, oral gavage 13.3 mg/kg every 12 hours
Protocol: EEGs were recorded from male and female Kcnal^−/− mice at 6-7 weeks of age. Kcnal^+/+ littermates were used as controls. There were no significant differences observed between males and females in seizure frequency and duration. Data presented include both sexes. Mice were anesthetized with isoflurane (5% induction, 2% maintenance) and eye ointment applied to each eye. Fur was removed along the head, and the area was cleaned with three alternative scrubs of chlorohexidine and 70% isopropanol. In a biosafety cabinet, mice were positioned in a stereotaxic apparatus (Harvard Biosciences) and 1 mg/kg lidocaine +1 mg/kg bupivacaine was applied locally along the incision site. […]
During EEG recordings, animals were freely moving and maintained on experimental diet. […] Simultaneous video recordings of behavioral seizures were correlated with EEG recordings and scored based on an adapted Racine scale and defined by 5 stages: 1) myoclonic jerk, 2) head stereotypy and facial clonus, 3) bilateral and alternating forelimb/hindlimb clonus, 4) rearing and falling, and 5) generalized tonic-clonic episodes. Data were analyzed by a blinded researcher using Neuroscore CNS Software (DSI). EEG signals were filtered using a 10 Hz high pass filter, and seizure events were detected by blinded manual scoring. […]

[2] = test system: P. merdae; test: Cross-feeding in vitro assay, P. merdae viability after GGsTop pre-treatment; format: cell-based, Parabacteroides merdae; details: 500 uM GGsTop pre-treatment, 2 hours, 37° C., pilot experiments
Protocol: (§1) Cross-feeding was measured as previously described. A. muciniphila was embedded at 2×10^6 cfu/ml in 5 ml pre-reduced CD or KD-based liquid media supplemented with 1% agar at the bottom of an anaerobic tube, and P. merdae was overlaid above it at 6×10^6 cfu/ml in 5 ml pre-reduced M9 minimal media. Diet-based media were generated by aseptically suspending mouse KD vs. CD diets, described above, to 2 kcal/ml in M9 media. Pilot experiments confirmed no ectopic translocation of embedded A. muciniphila from the agar compartment into the above M9 liquid compartment. For each time point, aliquots were taken from the top and bottom compartments, plated in a dilution series in rich media (RCM for P. merdae and BHI +0.05% mucins for A. muciniphila), and colonies were counted. For GGsTop pre-treatment experiments, P. merdae was incubated with 500 uM GGsTop vs vehicle in RCM media at 37° C. for 2 hours and then washed with sterile media.

[3] = test system: gamma-glutamyltranspeptidase (GGT); test: GGT activity assay in cultured P. merdae; format: biochemical, Parabacteroides merdae; details: conventionally-cultured P. merdae, 500 uM GGsTop vs vehicle
Protocol: as §1
GGT activity was measured as previously described. For anaerobic cultures, bacteria were seeded at 3×10^5 cfu/ml in CD- and KD-based media. 1 ml bacterial suspension was pelleted and frozen at −80° C. for 1 hr. […] Absorbance at 405 nm denoting production of 3-carboxy-4-nitroaniline was measured every minute for 1 hr at 37° C. using an automated multimode plate reader (Biotek Synergy H1).

[4] = test system: gamma-glutamyltranspeptidase (GGT); test: GGT activity assay, fecal samples exposed to GGsTop; format: biochemical, mouse; details: all fecal samples (SPF CD, SPF KD, AkkPb KD, AkkPb CD), 500 uM GGsTop
Protocol: GGT activity was measured as previously described. For anaerobic cultures, bacteria were seeded at 3×10^5 cfu/ml in CD- and KD-based media. 1 ml bacterial suspension was pelleted and frozen at −80° C. for 1 hr. Separate aliquots of the same suspension were plated in BHI mucin agar media or RCM and incubated at 37° C. in a Coy anaerobic chamber for later data normalization by bacterial cfu. Pellets were then resuspended in 250 ul lysis buffer (50 mM Tris-HCl with 1 ug/ml lysozyme) and incubated on ice for 30 min. For fecal samples, one pellet was weighed and homogenized in 1 ml lysis buffer. Bacterial and fecal suspensions were then sonicated (QSonica 125) and centrifuged at 12000×g for 10 min at 4° C. 20 ul supernatant was mixed with 180 ul substrate buffer (2.9 mM L-gamma-glutamyl-3-carboxy-4-nitroanilide (Gold Bio), 100 mM of glycylglycine (Sigma Aldrich), 100 mM Tris-HCl), and 500 uM GGsTop (if noted). Absorbance at 405 nm denoting production of 3-carboxy-4-nitroaniline was measured every minute for 1 hr at 37° C. using an automated multimode plate reader (Biotek Synergy H1).

[5] = test system: A. muciniphila; test: Cross-feeding in vitro assay, A. muciniphila growth; format: cell-based, Akkermansia muciniphila; details: A. muciniphila in CD agar exposed to P. merdae pre-treated with 500 uM GGsTop vs vehicle, 24 hours
Protocol: as §1

[6] = test system: SPF Swiss Webster mice; test: 6-Hz psychomotor seizure assay; format: in vivo; details: SPF mice fed CD, oral gavage 13.3 mg/kg every 12 hours for 3 days, vs vehicle
Protocol: The 6-Hz test was conducted as previously described. […] All subsequent experimental cohorts contained male mice. One drop (˜50 ul) of 0.5% tetracaine hydrochloride ophthalmic solution was applied to the corneas of each mouse 10-15 min before stimulation. Corneal electrodes were coated with a thin layer of electrode gel (Parker Signagel). A constant-current current device (ECT Unit 57800, Ugo Basile) was used to deliver current at 3 sec duration, 0.2 ms pulse-width and 6 pulses/s frequency. CC50 (the intensity of current required to elicit seizures in 50% of the experimental group) was measured as a metric for seizure susceptibility. […] Locomotor behavior was recorded using Ethovision XT software (Noldus) and quantitative measures for falling, tail dorsiflexion (Straub tail), forelimb clonus, eye/vibrissae twitching and behavioral remission were scored manually. […] Latency to exploration (time elapsed from when an experimental mouse is released into the observation cage (after corneal stimulation) to its first lateral movement) was scored using Ethovision and manually with an electronic timer. […] Seizure threshold (CC50) was determined as previously described, using the average log interval of current steps per experimental group, where sample n is defined as the subset of animals displaying the less frequent seizure behavior. […]

COP(=O)(CCC(N)C(=O)O)Oc1cccc(CC(=O)O)c1 (stereo not drawn) [GGsTop, 3-[[(3-amino-3-carboxypropyl)methoxyphosphinyl]oxy]benzeneacetic acid]
seizures per day (EEG) [1]: significant decrease in seizures per day
P. merdae viability [2]: no significant effect
GGT activity in P. merdae [3]: ablated
fecal GGT activity signal [4]: eliminated the detected signals
A. muciniphila growth [5]: increased growth
6-Hz seizure threshold (CC50) [6]: increases in seizure thresholds toward levels seen in SPF KD mice
